We go through three compounds from patent US20170239239A1, “Method for Inducing a Sustained Immune Response” (Immune Therapeutics Inc., priority 2016, published 2017).

In data set [1] the test system is advanced pancreatic cancer. Particulars: historical controls; cited from earlier work.
A further data set deals with IBS patients. Put plainly: Open-label study of PTI-901 in 42 IBS patients. It counts as in vivo, human. How it is done: Forty-two IBS patients participated in an open-label study. Participants received 0.5 mg PTI-901/day for 4 weeks and were evaluated during baseline, during treatment, and at 4-week follow-up. Patients recorded degree of abdominal pain, stool urgency, consistency, and frequency. Primary outcomes were number of pain-free days and overall symptom relief, evaluated by a global assessment score. Data were analyzed per protocol. Global assessment improved in 76% of 42 patients. During treatment, the mean weekly number of pain-free days increased from 0.5+/−1 to 1.25+/−2.14 (P=0.011).

The structures appear in SMILES notation.

On to `O=c1[nH]cc(F)c(=O)[nH]1` [5-fluorouracil (5-FU), 5-fluorouracil], for which, in data set [1], the Clinical benefit response is recorded as 4.8%.

Compound `Cl.O=C1CC[C@@]2(O)[C@H]3Cc4ccc(O)c5c4[C@@]2(CCN3CC2CC2)[C@H]1O5` [PTI-901] registered a Global assessment improved in the data set on IBS patients (0.5 mg/day for 4 weeks, of 42 patients) of 76%. Besides, the “mean weekly number of pain-free days” value in the data set on IBS patients (during treatment, from 0.5+/−1, P=0.011) is on record as 1.25+/−2.14. Moreover, the adverse reactions entry with IBS patients (human, in vivo) is listed as “no significant adverse reactions”.

With `Nc1ccn([C@@H]2O[C@H](CO)[C@@H](O)C2(F)F)c(=O)n1` [gemcitabine], in data set [1], the Clinical benefit response is 23.8%.
